Results on 7 molecules are retold here after patent US20090156646A1, “PYRIDYLPHENOL COMPOUND AND USE THEREOF” (TAKEDA PHARMACEUTICAL COMPANY LIMITED, priority 2005, published 2009).

The target of series [1] is T1, human metastin receptor hOT7T175 (Homo sapiens, UniProt Q969F8, L364H).
T1 construct: encoding the entire length of human metastin receptor hOT7T175; expressed in transfected cells; host or cells: CHO/dhFr- cells (ATCC #CRL-9096) stably transfected with pAKKO-hOT7T175; clone h175-16 was used as whole cells for FLIPR
T1 sequence (Q969F8 whole entry L364H): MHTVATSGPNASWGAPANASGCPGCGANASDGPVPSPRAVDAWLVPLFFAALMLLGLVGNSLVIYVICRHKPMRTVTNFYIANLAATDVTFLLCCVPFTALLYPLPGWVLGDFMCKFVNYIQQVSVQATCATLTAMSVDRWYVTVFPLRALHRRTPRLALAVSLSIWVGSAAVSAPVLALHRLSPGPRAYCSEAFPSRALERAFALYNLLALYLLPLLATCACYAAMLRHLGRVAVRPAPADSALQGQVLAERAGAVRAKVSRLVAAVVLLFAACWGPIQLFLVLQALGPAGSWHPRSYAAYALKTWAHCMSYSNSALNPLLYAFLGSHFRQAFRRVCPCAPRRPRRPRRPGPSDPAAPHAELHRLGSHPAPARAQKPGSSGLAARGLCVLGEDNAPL
As to the kind of experiment: FLIPR assay of metastin-induced change in intracellular calcium in h175-16 cells (antagonist activity). It counts as cell-based. To be noted: human metastin (40-54) as ligand, Fluo-3 fluorescence. The procedure: cDNA fragments (SEQ ID NO: 2) encoding the entire length of human metastin receptor hOT7T175 were incorporated into expression vector pAKKO1.11H to produce animal cell expression plasmids pAKKO-hOT7T175. CHO/dhFr-cells (ATCC, #CRL-9096) were seeded onto 6 cm culture dishes (Becton Dickinson) at a density of 0.3×10^6 cells/dish, and cultured in the conditions of 48 hours, 37° C. and 5% CO2. 5 μg pAKKO-hOT7T175 plasmid DNA was transfected to the resultant cells by a known method (described in Example 3 of WO 00/24890) using the Cellphect Transfection Kit (Amersham, #27-9268-01). The DNA-transfected cells were cultured in the Dulbecco's modified Eagle medium (DMEM) (Sigma, #D6046) containing 10% dialyzed FBS (Biowest, #S180D), 1× Non-Essential Amino Acid (Invitrogen, #11140-050) and 50 μg/ml Gentamycin (Invitrogen, #15750-060; and cell strains stably expressing the plasmid genes were selected. The obtained 41 clones were treated with the FLIPR assay (in accordance with the method described in Example 3 of WO 00/24890), and the reactivity to the human metastin […] (Nos. 40 to 54 of the human metastin sequence; Peptide Institute, Inc., #4389-v) was evaluated. In the end, h175 KB34 cell strains were selected. By substantially the same method, h175-16 cell strains were also produced.
The h175-16 cell strains prepared in Test Example 1 were seeded onto a 96-well plate (Corning, #3904) at 3×10^4 cell/well, and cultured for 24 hours on a CO2 incubator (cell seeding plate).
A calcium kit buffer containing 0.1% BSA [20 mM HEPES, 115 mM NaCl, 5.4 mM KCl, 0.8 mM MgCl2, 1.8 mM CaCl2, 13.8 mM D-glucose, pH 7.4, with an attached calcium kit produced by Dojin] was prepared and kept warm at 37° C. Then, the medium in the wells of the cell seeding plate was removed, and […] of the calcium kit buffer was added to each well. 50 μl 250 mM Probenecid (with an attached calcium kit produced by Dojin), 80 μl 5% Pluronic F-127 (with an attached calcium kit produced by Dojin) and 25 μl Fluo-3 AM (powder with an attached calcium kit produced by Dojin was dissolved in DMSO at 1 mg/ml) were added to the calcium kit buffer containing 5 ml 0.1% BSA (an amount for measuring one plate) to prepare a loading solution. 50 μl of the loading solution was added to each well to allow a reaction at 37° C. for 1 hour. Thus, Fluo-3 AM was loaded onto the cells. Then, the solution in each well was removed, and 100 μl of the calcium kit buffer containing 1.25 mM Probenecid and 0.1% BSA was added to each well.
50 μl of a test compound diluted with the calcium kit buffer containing 0.1% BSA was added to each well, and stirred by a plate shaker. A cell plate, and a ligand plate provided with human metastin (40-54) (AnyGen) diluted to 400 μM with the calcium kit buffer containing 0.1% BSA, were set to the Fluorometric Imaging Plate Reader (FLIPR, Molecular Devices), and […] was added to each well using an automatic divider in the FLIPR. A change in the calcium concentration in the cells, which corresponded to the ligand response, was measured by a CCD camera in the FLIPR as a change in the amount of fluorescence of Fluo-3. The obtained change in the amount of fluorescence was plotted against the concentration of the test compound, and the compound concentration at which 50% of the change in the amount of fluorescence (i.e., IC50 value) was inhibited was calculated.
In general terms: Calcium flux is commonly read through the fluorescence of an indicator in the cells.

Series [2] addresses T1, human metastin receptor hOT7T175. As to the kind of experiment: binding inhibiting activity: 125I-metastin (40-54) binding to cell membrane fraction of h175 KB34 cells. The conditions noted are these: room temperature 60 minutes, read-out: binding inhibiting activity, represented by the IC50 value. A digest of the protocol:
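Membranes came from CHO/dhfr− cells stably expressing human hOT7T175 (clone h175 KB34) and were diluted 250-fold for use. Binding of 125I-metastin (40-54) was run in 20 mM Tris, 2.5 mM magnesium acetate and 2 mM EGTA, pH 7.4, with protease inhibitors, either without BSA or with 1 mg/ml BSA.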

Series [3] has as its system blood LH level. The experiment in a line: Suppression of the blood LH level of castrated rats. It counts as in vivo, rat. The conditions noted are these: male castrated Wistar rats. The procedure:
The compound of Example 303 was intravenously administered to male castrated rats, and the blood LH level was measured. Male Wistar rats (Japan SLC, Inc.), which were castrated 7 days before the experiment and were 11 weeks old at the time of the experiment, were used. […] To the control animals (n=8), only 20% DMSO-[…]% PEG400 used as a dispersion medium was intravenously administered in an amount of 0.8 ml/kg every 10 minutes, 5 times in succession. […] The LH concentration in the plasma was measured by radioimmunoassay. […] The start time of the administration was set to 0 (represented with the arrow).

By IC50 is commonly meant the midpoint of a concentration-inhibition curve. A word on the melting point: it is the temperature, or range, at which the solid turns liquid.

Structures can show the parent of a compound that is named as a salt.

In the case of `N#Cc1c(-c2cccc(NC(=O)CN)c2)cc(-c2ccccc2O)nc1NC(=O)c1cccs1` [Example 12, N-[3-cyano-4-[3-(glycylamino)phenyl]-6-(2-hydroxyphenyl)pyridin-2-yl]thiophene-2-carboxamide dihydrochloride], the IC50 in series [1] and in series [2] was ≤ 10 µM each time.
As for `N#Cc1c(-c2cccc(NC(=O)CCCN)c2)cc(-c2ccccc2O)nc1NC(=O)c1cccs1` [Example 23, N-[4-{3-[(4-aminobutanoyl)amino]phenyl}-3-cyano-6-(2-hydroxyphenyl)pyridin-2-yl]thiophene-2-carboxamide dihydrochloride], the IC50 in series [1] and in series [2] was ≤ 10 µM each time.
`Cl.N#Cc1c(-c2cccc(NC(=O)CCN)c2)cc(-c2ccccc2O)nc1NC(=O)c1cccs1` [Example 14, N-{4-[3-(β-alanylamino)phenyl]-3-cyano-6-(2-hydroxyphenyl)pyridin-2-yl}thiophene-2-carboxamide hydrochloride]: the melting point was in the range of 223 to 228 °C. Also, in series [1], the IC50 was ≤ 10 µM. Moreover, the IC50 in series [2] is ≤ 10 µM.
Molecule `Cl.N#Cc1c(-c2cccc(C(=O)NCCN)c2)cc(-c2ccccc2O)nc1NC(=O)c1cccs1` [Example 3, N-[4-(3-{[(2-aminoethyl)amino]carbonyl}phenyl)-3-cyano-6-(2-hydroxyphenyl)pyridin-2-yl]thiophene-2-carboxamide hydrochloride] had a melting point of 203 to 210 °C. The IC50 in series [1] was ≤ 10 µM. Moreover, the IC50 in series [2] was ≤ 10 µM.
Consider `Cl.N#Cc1c(-c2cccc(N3CCNCC3)c2)cc(-c2ccc(F)cc2O)nc1NC(=O)c1ccco1` [Example 303, N-[3-cyano-6-(4-fluoro-2-hydroxyphenyl)-4-(3-piperazin-1-ylphenyl)pyridin-2-yl]-2-furamide hydrochloride], for which the “blood LH concentration, % of that of the control group” value in series [3] (intravenous 0.22 mg/kg every 10 minutes 5 times, 60 minutes after the start of administration, P<0.01) worked out at 68%. Further, in series [3] (intravenously administered), the “effect on blood LH concentration (in words)” value was “significantly decreasing the blood LH concentration”. Besides, the IC50 in series [2] is ≤ 10 µM.
In the case of `NCCC(=O)Nc1cccc(-c2cc(NC(=O)c3cccs3)nc(-c3ccccc3O)c2)c1` [Example 27, N-{4-[3-(β-alanylamino)phenyl]-6-(2-hydroxyphenyl)pyridin-2-yl}thiophene-2-carboxamide dihydrochloride], the IC50 in series [1] and in series [2] was ≤ 10 µM in each case.
For the molecule `CN(C)[C@@H]1CCCC[C@@H]1C(=O)Nc1cccc(-c2cc(-c3ccc(F)cc3O)nc(NC(=O)c3ccco3)c2C#N)c1.Cl` [Example 286, N-{3-cyano-4-[3-({[(1S,2R)-2-(dimethylamino)cyclohexyl]carbonyl}amino)phenyl]-6-(4-fluoro-2-hydroxyphenyl)pyridin-2-yl}-2-furamide hydrochloride], the melting point lay in the range of 205 to 207 °C. The IC50 in series [2] is ≤ 10 µM.
